# Patent publication US9970938B2, “Use of BUBR1 as a biomarker of drug response to furazanobenzimidazoles” (Basilea Pharmaceutica AG, priority 2011, dated 2018)
# How the values were obtained:
# Type in all cases: cell-based, human
# [1] = tested on: A549 NSCLC cells; assay: Immunofluorescent staining of microtubules in cultured cells; details: for microtubule phenotype of mitotic or G2/M arrested cells: 24 hours treatment, anti-alpha-tubulin staining; for microtubule phenotype, agent added for the last 4 hours of 24 hours BAL27862 treatment: combination
# Protocol: A549 human non-small cell lung cancer (NSCLC, ATCC reference number CCL-185) cells, HeLa cervical cancer cells (ATCC reference number CCL-2) and SKBR3 breast carcinoma cells (ATCC reference number HTB-30) were seeded at densities of 50% on round microscope coverslips and cultured for 24 hours in RPMI-1640 containing 10% FCS (also referred to as FBS) at 37° C., 5% CO2. Compounds to be tested were dissolved in DMSO. The cell culture medium was replaced with medium containing the diluted compound(s) (paclitaxel, vinblastine, colchicine and nocodazole were purchased from Sigma-Aldrich) or vehicle. After treatment, coverslips were washed and cells were fixed in methanol/acetone (1:1) for 5 minutes at room temperature and subsequently incubated in blocking buffer (0.5% BSA and 0.1% TX-100 in PBS) for 30 minutes at room temperature. Specimens were then incubated with anti-alpha-tubulin antibody (Sigma, 1:2000) for 1 hour at room temperature in blocking buffer. After several washing steps cells were incubated with AlexaFluor-488 goat-anti-mouse IgG (Molecular Probes, 1:3000) for 1 hour at room temperature followed by several washing steps with blocking buffer. Specimens were then mounted with ProLong Gold antifade (Molecular Probes), sealed with nail polish and examined with a Leica immunofluorescence microscope. Images were captured with a cooled CCD-camera and processed by ImageJ software.
# [2] = tested on: SKOV3 resistant 1; assay: Crystal Violet assay of BAL27862-resistant cell line versus parental line; details: 72 hours incubation, Crystal Violet
# Description: (§1) BAL27862-resistant sublines of human non-small cell lung cancer (H460 ATCC reference HTB-177; A549 ATCC reference CCL-185), ovarian cancer (SKOV3 ATCC reference HTB-77) lines were generated by long-term selection in complete cell culture medium (RPMI-1640 containing 10% FCS; Sigma-Aldrich) by stepwise increasing concentrations of BAL27862. […] The resistant sublines were expanded at the highest tolerated BAL27862 concentration and subsequently frozen and stored in liquid nitrogen.
# (§2) After medium was removed, cells were fixed and stained by adding 50 μl Crystal Violet Staining (0.2% Crystal Violet in 50% Methanol) per well. Plates were incubated for 1 hour at room temperature. Subsequently the stain was decanted and plates were washed 4 times with double-distilled water. Plates were air-dried for several hours. Stain was dissolved by adding 100 μl buffer (0.1 M Tris pH 7.5, 0.2% SDS, 20% Ethanol) per well and shaking the plates. Absorbance at 590 nm was measured using a SpectraMax M2e plate reader (Molecular Devices). Anti-proliferative IC50 values were calculated from concentration response curves using GraphPad Prism software. Resistance factors were calculated as a ratio of BAL27862 IC50 in the resistant line variant versus the IC50 in the parental line.
# [3] = tested on: SKOV3 resistant 2; assay: as above; details: 72 hours incubation, Crystal Violet
# Description: as §1, §2
# [4] = tested on: A549; assay: as above; details: 72 hours incubation, Crystal Violet
# Description: as §1, §2
# [5] = tested on: H460; assay: as above; details: 72 hours incubation, Crystal Violet
# Description: as §1, §2
# [6] = tested on: tumour cells derived from patient-derived tumours from gastric and lung cancer; assay: Colony outgrowth assay, all tumour models
# Protocol: (§3) Single cell suspensions of patient-derived tumour xenografts (maintained in nude mice) were prepared. For colony outgrowth assays, cells were plated in soft agar in 24-well plates according to the assay introduced by Hamburger & Salmon (Primary bioassay of human tumour stem cells, Science, 1977, 197:461-463). 2.0E+04-6.0E+04 cells in 0.2 mL medium containing 0.4% agar were plated out on a bottom layer of 0.75% agar. Test compounds were applied in 0.2 mL culture medium. Every 24-well plate contained untreated controls and samples in triplicates. Cultures were incubated at 37° C. and 7.5% CO2 for 5-28 days. 24 hours prior to analysis, vital colonies were stained with a solution of metabolizable tetrazolium salt (Alley M C et al, Life Sci. 1982, 31:3071-3078) and were counted with an automatic image analysis system (Omnicon 3600, Biosys GmbH). Relative drug effects were expressed by the ratio of the mean number of colonies in the treated wells and the control wells. IC70-values were determined by plotting compound concentrations versus relative colony counts.
# [7] = tested on: GXF251; assay: Colony outgrowth assay, patient-derived tumour xenograft cells; set-up: key: S: BAL27862-sensitive tumour cells have IC70 values in the low nanomolar range; R: BAL27862-resistant tumour cells are defined by IC70 values >600 nanomolar; details: Gastric
# Protocol: as §3, with “GmbH).” for “GmbH). Relative drug effects were expressed by the ratio of the mean number of colonies in the treated wells and the control wells. IC70-values were determined by plotting compound concentrations versus relative colony counts.”
# (§4) Relative drug effects were expressed by the ratio of the mean number of colonies in the treated wells and the control wells. IC70-values were determined by plotting compound concentrations versus relative colony counts.
# [8] = tested on: LXFA629; assay: as above; set-up: key: S: BAL27862-sensitive tumour cells have IC70 values in the low nanomolar range; R: BAL27862-resistant tumour cells are defined by IC70 values >600 nanomolar; details: Lung
# Protocol: as §3, with “GmbH).” for “GmbH). Relative drug effects were expressed by the ratio of the mean number of colonies in the treated wells and the control wells. IC70-values were determined by plotting compound concentrations versus relative colony counts.”
# as §4
# [9] = tested on: GXF97; assay: as above; set-up: key: S: BAL27862-sensitive tumour cells have IC70 values in the low nanomolar range; R: BAL27862-resistant tumour cells are defined by IC70 values >600 nanomolar; details: Gastric
# Protocol: as §3, with “GmbH).” for “GmbH). Relative drug effects were expressed by the ratio of the mean number of colonies in the treated wells and the control wells. IC70-values were determined by plotting compound concentrations versus relative colony counts.”
# as §4
# [10] = tested on: LXFL529; assay: as above; set-up: key: S: BAL27862-sensitive tumour cells have IC70 values in the low nanomolar range; R: BAL27862-resistant tumour cells are defined by IC70 values >600 nanomolar; details: Lung
# Protocol: as §3, with “GmbH).” for “GmbH). Relative drug effects were expressed by the ratio of the mean number of colonies in the treated wells and the control wells. IC70-values were determined by plotting compound concentrations versus relative colony counts.”
# as §4
# [11] = tested on: BAL27862-resistant cells; assay: Crystal Violet assay of BAL27862-resistant cell lines, all lines
# Description: as §1, §2
SMILES,microtubule phenotype of mitotic or G2/M arrested cells [1],"microtubule phenotype, agent added for the last 4 hours of 24 hours BAL27862 treatment [1]","resistance or sensitivity to treatment, same ex vivo assay [6]","Sensitive (S)/Resistant (R), by IC70 in colony outgrowth [7]","Sensitive (S)/Resistant (R), by IC70 in colony outgrowth [8]","Sensitive (S)/Resistant (R), by IC70 in colony outgrowth [9]","Sensitive (S)/Resistant (R), by IC70 in colony outgrowth [10]",also measured
"COc1cc2c(c(OC)c1OC)-c1ccc(OC)c(=O)cc1[C@@H](NC(C)=O)CC2 [Colchicine, colchicine]",mitotic microtubule phenotypes characteristic of these agents,no impact on the observed microtubule phenotype,,,,,,Resistance factors (ratio of IC50 BAL27862-resistant cell line variant and IC50 parental cell line) [2]: 2.0; Resistance factors (ratio of IC50 BAL27862-resistant cell line variant and IC50 parental cell line) [3]: 2.8; Resistance factors (ratio of IC50 BAL27862-resistant cell line variant and IC50 parental cell line) [4]: 0.9; Resistance factors (ratio of IC50 BAL27862-resistant cell line variant and IC50 parental cell line) [5]: 1.6
"Nc1ccc(C(=O)Cn2c(-c3nonc3N)nc3ccccc32)cc1 [Compound B, 2-[2-(4-Amino-furazan-3-yl)-benzoimidazol-1-yl]-1-(4-amino-phenyl)-ethanone]",highly reproducible and distinct microtubule phenotype,,,,,,,
"N#CCCNc1nonc1-c1nc2ccccc2n1CC(=O)c1ccc(N)nc1 [Compound C, 3-(4-{1-[2-(6-Amino-pyridin-3-yl)-2-oxo-ethyl]-1H-benzoimidazol-2-yl}-furazan-3-ylamino)-propionitrile]",highly reproducible and distinct microtubule phenotype,,,,,,,
"COC(=O)Nc1nc2ccc(C(=O)c3cccs3)cc2[nH]1 [Nocodazole, nocodazole]",mitotic microtubule phenotypes characteristic of these agents,no impact on the observed microtubule phenotype,,,,,,
"CC(=O)O[C@H]1C(=O)[C@@]2(C)[C@H]([C@H](OC(=O)c3ccccc3)[C@]3(O)C[C@H](OC(=O)[C@H](O)[C@@H](NC(=O)c4ccccc4)c4ccccc4)C(C)=C1C3(C)C)[C@]1(OC(C)=O)CO[C@@H]1C[C@@H]2O [Paclitaxel, paclitaxel]",mitotic microtubule phenotypes characteristic of these agents,no impact on the observed microtubule phenotype,resistant,R (BAL27862-resistant tumour cells are defined by IC70 values >600 nanomolar),R (BAL27862-resistant tumour cells are defined by IC70 values >600 nanomolar),R (BAL27862-resistant tumour cells are defined by IC70 values >600 nanomolar),R (BAL27862-resistant tumour cells are defined by IC70 values >600 nanomolar),response of BAL27862-resistant cells versus parental [11]: increased sensitivity
"CC[C@]1(O)C[C@@H]2CN(CCc3c([nH]c4ccccc34)[C@@](C(=O)OC)(c3cc4c(cc3OC)N(C)[C@H]3[C@@](O)(C(=O)OC)[C@H](OC(C)=O)[C@]5(CC)C=CCN6CC[C@]43[C@@H]65)C2)C1 [Vinblastine, vinblastine]",mitotic microtubule phenotypes characteristic of these agents,no impact on the observed microtubule phenotype,sensitive,S,S,S,S,
